Laboratory results taken from article PMC10350927 (Journal of Medicinal Chemistry, 2023).
Where a chain is given by its changes, count along the chain named. Marks after values point to notes of the source that are not given here.

How the values were obtained:
hSUCNR1 [1] = molecular target: T1, hSUCNR1 (Homo sapiens, UniProt Q9BXA5); experiment: cAMP assay, inhibition of succinate response at hSUCNR1; format: cell-based; parameters: expressed in transfected cells; host or cells: Flp-In T-REx 293; settings: inhibition of […] succinate response; mean ± SEM
T1 sequence (Q9BXA5 1-334): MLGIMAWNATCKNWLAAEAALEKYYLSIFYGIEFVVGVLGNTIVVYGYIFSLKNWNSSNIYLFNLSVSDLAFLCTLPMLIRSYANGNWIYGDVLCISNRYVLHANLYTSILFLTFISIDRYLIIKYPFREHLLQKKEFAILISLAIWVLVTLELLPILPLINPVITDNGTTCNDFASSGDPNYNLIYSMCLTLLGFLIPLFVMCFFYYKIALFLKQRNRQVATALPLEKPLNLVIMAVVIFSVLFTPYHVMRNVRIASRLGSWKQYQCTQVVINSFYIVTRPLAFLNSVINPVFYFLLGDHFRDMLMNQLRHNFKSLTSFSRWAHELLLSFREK

hmSUCNR1 [2] = molecular target: T2, hmSUCNR1 (Mus musculus, UniProt Q99MT6, G84W/K269N/N18E); experiment: BRET competition binding using 46 as tracer, hmSUCNR1
T2 sequence (Q99MT6 1-317 N18E/G84W/K269N): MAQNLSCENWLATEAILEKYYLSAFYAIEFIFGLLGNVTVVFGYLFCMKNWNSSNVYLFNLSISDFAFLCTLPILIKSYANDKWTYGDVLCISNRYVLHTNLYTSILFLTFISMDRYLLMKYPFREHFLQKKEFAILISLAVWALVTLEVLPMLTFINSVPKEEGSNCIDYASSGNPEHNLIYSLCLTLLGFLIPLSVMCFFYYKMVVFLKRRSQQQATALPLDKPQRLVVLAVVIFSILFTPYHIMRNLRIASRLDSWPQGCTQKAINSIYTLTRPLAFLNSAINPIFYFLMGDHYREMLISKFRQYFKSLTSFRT

mSUCNR1 [3] = molecular target: T3, mSUCNR1 (Mus musculus, UniProt Q99MT6); experiment: BRET competition binding using 22 as tracer, mSUCNR1; settings: 1 μM 22, Kd = […]; highest unlabeled ligand 30 μΜ
T3 sequence (Q99MT6 1-317): T2 sequence (Q99MT6 1-317 N18E/G84W/K269N) with E18N, W84G, N269K

hSUCNR1 [4] = molecular target: T1, hSUCNR1; experiment: BRET competition binding using 46 as tracer, hSUCNR1; settings: […] 46, Kd = 310 nM
hSUCNR1 [5] = molecular target: T1, hSUCNR1; experiment: BRET competition binding using 22 as tracer, hSUCNR1; settings: 3 μM 22, Kd = 990 nM; mean ± SEM, three experiments
[6] = molecular target: T4, hmSUCNR1 (N18^1.31E, K269^7.32N, and G84^EL1W) (Mus musculus, UniProt Q99MT6, G84W/K269N/N18E); experiment: cAMP assay, inhibition of succinate response at hmSUCNR1; format: cell-based; settings: read-out: hmSUCNR1 cAMP pIC50 (converted)
T4 construct: mGlu5 glutamate receptor signal peptide (N); expressed in transfected cells; the methods describe Flp-In T-REx 293
T4 sequence (Q99MT6 1-317 N18E/G84W/K269N): T2 sequence (Q99MT6 1-317 N18E/G84W/K269N)

[7] = molecular target: T5, mSUCNR1-N18^1.31E/K269^7.32N (Mus musculus, UniProt Q99MT6, K269N/N18E); experiment: G protein activation BRET assay, mSUCNR1-N18E/K269N; format: cell-based; settings: against an EC80 concentration of succinate
T5 construct: expressed in transfected cells; host or cells: HEK-293T
T5 sequence (Q99MT6 1-317 N18E/K269N): T2 sequence (Q99MT6 1-317 N18E/G84W/K269N) with W84G
Procedure: G protein activation assays were carried out using the open-source TRUPATH platform previously described.[36]

hmSUCNR1 [8] = molecular target: T2, hmSUCNR1; experiment: BRET competition binding using 22 as tracer, hmSUCNR1
[9] = molecular target: T6, mSUCNR1 construct containing N18^1.31E, K269^7.32N, and G84^EL1W (Mus musculus, UniProt Q99MT6, G84W/K269N/N18E); experiment: G protein activation BRET assay, mSUCNR1-N18E/G84W/K269N; format: cell-based
T6 construct: expressed in transfected cells; host or cells: HEK-293T
T6 sequence (Q99MT6 1-317 N18E/G84W/K269N): T2 sequence (Q99MT6 1-317 N18E/G84W/K269N)
Procedure: G protein activation assays were carried out using the open-source TRUPATH platform previously described.[36] HEK-293T cells were transfected with Gαi1-Rluc8, Gγ8-GFP^2, Gβ3 and either human, mouse, mouse-N18E/K269N, or mouse-N18E/G84W/K269N SUCNR1 in a 1:1:1:1 plasmid mass ratio using polyethyleneimine.

mSUCNR1 [10] = molecular target: T3, mSUCNR1; settings: transiently transfected HEK-293T cells
hSUCNR1 [11] = molecular target: T1, hSUCNR1; experiment: cAMP assay, agonist potency at hSUCNR1; format: cell-based; parameters: expressed in transfected cells; host or cells: Flp-In T-REx 293; settings: Flp-In T-REx 293 cells, mean ± SEM, minimum three independent experiments
mSUCNR1 [12] = molecular target: T3, mSUCNR1; experiment: cAMP assay, agonist potency at mSUCNR1; format: cell-based; parameters: expressed in transfected cells; host or cells: Flp-In T-REx 293; settings: Flp-In T-REx 293 cells; for cAMP mSUCNR1 pEC50: mean ± SEM, minimum three independent experiments
Nluc-mSUCNR1 = molecular target: T7, Nluc-mSUCNR1 (Mus musculus, UniProt Q99MT6); experiment: cAMP assay, agonist potency at Nluc-mSUCNR1; settings: N-terminally Nluc-tagged receptor
T7 sequence (Q99MT6 1-317): T2 sequence (Q99MT6 1-317 N18E/G84W/K269N) with E18N, W84G, N269K

SMILES	cAMP hSUCNR1 pIC50 (hSUCNR1 [1])	Ki (hmSUCNR1 [2])	Competion binding using 22 mSUCNR1 pKi (mSUCNR1 [3])	Competion binding using 46 hSUCNR1 pKi (hSUCNR1 [4])	Competion binding using 22 hSUCNR1 pKi (hSUCNR1 [5])	IC50 [6]	antagonism against mSUCNR1-N18^1.31E/K269^7.32N [7]	Ki (hmSUCNR1 [8])	antagonism at mSUCNR1 N18^1.31E, K269^7.32N, G84^EL1W mutant ([9]; against an EC80 concentration of succinate)	fold lower affinity at hmSUCNR1 compared to hSUCNR1 (hmSUCNR1 [8]; competition binding)	G protein activation pEC50 at mSUCNR1 (mSUCNR1 [10])	cAMP hSUCNR1 pEC50 (hSUCNR1 [11])	EC50 (hSUCNR1 [11]; read-out: cAMP hSUCNR1 pEC50 (converted))	Emax (mSUCNR1 [12])	cAMP mSUCNR1 pEC50 (mSUCNR1 [12])	cAMP mSUCNR1 pEC50 (mSUCNR1 [12]; listed as succinate)	Nluc-mSUCNR1 cAMP pEC50 (Nluc-mSUCNR1)	G protein activation pEC50 at mSUCNR1 N18^1.31E, K269^7.32N, G84^EL1W ([9]; transiently transfected HEK-293T cells)
CN1CCN(Cc2ccc(-c3cccc(C(=O)Nc4ccccc4CC(=O)O)c3)cc2)CC1 [Compound 1, 4-((3′-((2-(Carboxymethyl)phenyl)carbamoyl)-[1,1′-biphenyl]-4-yl)methyl)-1-methylpiperazin-1-ium 2,2,2-trifluoroacetate]	7.07 ± 0.21	0.0631 µM	5.1 ± 0.0	7.1 ± 0.1	7.4 ± 0.1	0.0794 µM	no measurable antagonism	0.0501 µM	a level of antagonism similar to that with hSUCNR1	–	–	–	–	–	–	–	–	–
O=C(O)Cc1ccccc1NC(=O)c1cccc(-c2ccc(Cl)cc2)c1 [Compound 32, 2-(2-(4′-Chloro-[1,1′-biphenyl]-3-carboxamido)phenyl)acetic acid]	6.31 ± 0.18	0.251 µM	<4.5 ^d	7.6 ± 0.1	7.8 ± 0.3	–	–	0.316 µM	–	~10 fold	–	–	–	–	–	–	–	–
O=C(O)CCC(=O)O [Succinate]	–	631 µM	3.3 ± 0.1	3.2 ± 0.1	3.7 ± 0.1	–	–	1000 µM	–	–	5.29 ± 0.12	5.04 ± 0.02	~10 µM	100%	5.02 ± 0.10	~5.0	5.69 ± 0.11	4.28 ± 0.09
